Experimental data as given in PubChem BioAssay AID248 (DTP/NCI, 2004).
Where “and” joins values, the source holds several entries; their conditions need not be identical. Equal values may be shown once. Inconclusive results and toxic doses are left out. Rule as the data show it: active = T/C of 150% or more; inactive = T/C below 125%.

Tested on: L1210 leukemia ip in BDF1 mice, survival T/C
Assay: NCI In Vivo Anticancer Drug Screen. Data for tumor model L1210 Leukemia (intraperitoneal) in B6D2F1 (BDF1) mice
Conditions: endpoint: mean survival time, higher = longer survival
Outline: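 Transplanted-tumor mice were given test agent; controls received vehicle only. Survival readings from the two groups were divided (treated over control).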

[1] = dose: 100.0 mg/kg/injection, schedule: Q01DX001 (ip), vehicle: saline
[2] = dose: 200.0 mg/kg/injection, schedule: Q01DX001 (ip), vehicle: saline
[3] = dose: 400.0 mg/kg/injection, schedule: Q01DX001 (ip), vehicle: saline
[4] = dose: 100.0 mg/kg/injection, schedule: Q04DX003 (ip), vehicle: saline
[5] = dose: 200.0 mg/kg/injection, schedule: Q04DX003 (ip), vehicle: saline
[6] = dose: 50.0 mg/kg/injection, schedule: Q01DX001 (ip), vehicle: saline
[7] = dose: 100.0 mg/kg/injection, schedule: Q01DX009 (ip), vehicle: saline with Tween-80
[8] = dose: 200.0 mg/kg/injection, schedule: Q01DX009 (ip), vehicle: saline with Tween-80
[9] = dose: 400.0 mg/kg/injection, schedule: Q04DX003 (ip), vehicle: saline
[10] = dose: 100.0 mg/kg/injection, schedule: Q01DX009 (ip), vehicle: saline
[11] = dose: 200.0 mg/kg/injection, schedule: Q01DX009 (ip), vehicle: saline
[12] = dose: 400.0 mg/kg/injection, schedule: Q01DX009 (ip), vehicle: saline
[13] = dose: 100.0 mg/kg/injection, schedule: Q04DX003 (ip), vehicle: Klucel (hydroxypropylcellulose) (HPC)
[14] = dose: 200.0 mg/kg/injection, schedule: Q04DX003 (ip), vehicle: Klucel (hydroxypropylcellulose) (HPC)
[15] = dose: 400.0 mg/kg/injection, schedule: Q04DX003 (ip), vehicle: Klucel (hydroxypropylcellulose) (HPC)
[16] = dose: 50.0 mg/kg/injection, schedule: Q01DX009 (ip), vehicle: Klucel (hydroxypropylcellulose) (HPC)
[17] = dose: 400.0 mg/kg/injection, schedule: Q01DX009 (ip), vehicle: Klucel (hydroxypropylcellulose) (HPC)
[18] = dose: 100.0 mg/kg/injection, schedule: Q01DX009 (ip), vehicle: Klucel (hydroxypropylcellulose) (HPC)
[19] = dose: 200.0 mg/kg/injection, schedule: Q01DX009 (ip), vehicle: Klucel (hydroxypropylcellulose) (HPC)

Measured: T/C

NC(CO)C(=O)O (stereo unspecified)
inactive: dose: 100.0 mg/kg/injection, schedule: Q01DX001 (ip), vehicle: carboxymethylcellulose (CMC) 95 % of control | [1] 91 % of control and 104 % of control | dose: 200.0 mg/kg/injection, schedule: Q01DX001 (ip), vehicle: carboxymethylcellulose (CMC) 101 % of control | [2] 92 % of control and 101 % of control | dose: 400.0 mg/kg/injection, schedule: Q01DX001 (ip), vehicle: carboxymethylcellulose (CMC) 103 % of control | [3] 105 % of control and 95 % of control

c1ccc(CNCC2c3[nH]c4ccccc4c3CN2C2CCCCC2)cc1 (stereo unspecified)
inactive: dose: 75.0 mg/kg/injection, schedule: Q01DX001 (ip), vehicle: carboxymethylcellulose (CMC) 102 % of control | dose: 150.0 mg/kg/injection, schedule: Q01DX001 (ip), vehicle: carboxymethylcellulose (CMC) 90 % of control | dose: 300.0 mg/kg/injection, schedule: Q01DX001 (ip), vehicle: carboxymethylcellulose (CMC) 91 % of control

[CH3][Sb]1([CH3])([I])[CH2]CCC[CH2]1
inactive: [4] 97 % of control | [5] 97 % of control

Cc1cc(C)c(SSc2c(C)cc(C)cc2C)c(C)c1
inactive: [6] 106 % of control | [1] 104 % of control | [2] 100 % of control

[Cl][Sn]([c]1ccccc1)([c]1ccccc1)[c]1ccccc1
inactive: dose: 2.5 mg/kg/injection, schedule: Q01DX009 (ip), vehicle: Klucel (hydroxypropylcellulose) (HPC) 89 % of control | dose: 5.0 mg/kg/injection, schedule: Q01DX001 (ip), vehicle: saline 95 % of control | dose: 5.0 mg/kg/injection, schedule: Q01DX009 (ip), vehicle: Klucel (hydroxypropylcellulose) (HPC) 97 % of control and 106 % of control | dose: 5.0 mg/kg/injection, schedule: Q04DX003 (ip), vehicle: Klucel (hydroxypropylcellulose) (HPC) 95 % of control | dose: 10.0 mg/kg/injection, schedule: Q01DX001 (ip), vehicle: saline 101 % of control | dose: 10.0 mg/kg/injection, schedule: Q04DX003 (ip), vehicle: Klucel (hydroxypropylcellulose) (HPC) 90 % of control | dose: 20.0 mg/kg/injection, schedule: Q01DX001 (ip), vehicle: saline 95 % of control | dose: 40.0 mg/kg/injection, schedule: Q01DX001 (ip), vehicle: saline 91 % of control

O=C(O)c1ccc(NC(Nc2ccc(C(=O)O)cc2)C(=O)c2ccccc2)cc1
inactive: [1] 95 % of control | [2] 89 % of control | [3] 101 % of control

Oc1cc(O)c2c(c1)OC(c1ccc(O)c(O)c1)C(OC1(c3cc(O)c(O)c(O)c3)Oc3cc(O)cc(O)c3C(O)C1O)C2 (stereo unspecified)
inactive: [7] 95 % of control | [8] 97 % of control

CCN1CCC2CN(C(=N)N)CCN2C1=O (stereo unspecified)
inactive: [4] 101 % of control | [5] 103 % of control | [9] 116 % of control

CCCCCOCC
inactive: [1] 103 % of control | [10] 96 % of control | [2] 105 % of control | [11] 101 % of control | [3] 103 % of control | [12] 101 % of control

CN(C)C(=S)SSSSC(=S)N(C)C
inactive: dose: 100.0 mg/kg/injection, schedule: Q04DX002 (ip), vehicle: Klucel (hydroxypropylcellulose) (HPC) 108 % of control | dose: 200.0 mg/kg/injection, schedule: Q04DX002 (ip), vehicle: Klucel (hydroxypropylcellulose) (HPC) 108 % of control | dose: 400.0 mg/kg/injection, schedule: Q04DX002 (ip), vehicle: Klucel (hydroxypropylcellulose) (HPC) 99 % of control and 90 % of control

CCCCCCN(C)Cc1ccc(OCCOc2ccc(CN(C)CCCCCC)cc2)cc1
inactive: [6] 100 % of control

COC(=O)c1ccc(SC(=O)N(C)C)cc1
inactive: [13] 91 % of control | [14] 96 % of control | [15] 91 % of control

O=Cc1cn(C2CC(O)C(CO)O2)c(=O)[nH]c1=O (stereo unspecified)
inactive: [16] 117 % of control | dose: 50.0 mg/kg/injection, schedule: Q04DX003 (ip), vehicle: saline with Tween-80 103 % of control | dose: 100.0 mg/kg/injection, schedule: Q01DX005 (ip), vehicle: saline 108 % of control | dose: 100.0 mg/kg/injection, schedule: Q04DX003 (ip), vehicle: saline with Tween-80 99 % of control | dose: 200.0 mg/kg/injection, schedule: Q01DX005 (ip), vehicle: saline 110 % of control | dose: 200.0 mg/kg/injection, schedule: Q04DX003 (ip), vehicle: saline with Tween-80 102 % of control | [17] 114 % of control | dose: 400.0 mg/kg/injection, schedule: Q04DX003 (ip), vehicle: saline with Tween-80 96 % of control

O=C(NOC(=O)c1ccco1)c1ccccc1
inactive: [13] 97 % of control | [14] 113 % of control | [15] 104 % of control

O=C(/C=C/c1ccccc1)C1CC1
inactive: dose: 100.0 mg/kg/injection, schedule: Q04DX003 (ip), vehicle: other 101 % of control | dose: 200.0 mg/kg/injection, schedule: Q04DX003 (ip), vehicle: other 98 % of control | dose: 400.0 mg/kg/injection, schedule: Q04DX003 (ip), vehicle: other 98 % of control

O=C(/C=C/c1ccccc1)CC(=O)c1ccccc1
inactive: dose: 100.0 mg/kg/injection, schedule: Q04DX003 (ip), vehicle: DMSO 102 % of control | dose: 200.0 mg/kg/injection, schedule: Q04DX003 (ip), vehicle: DMSO 97 % of control | dose: 400.0 mg/kg/injection, schedule: Q04DX003 (ip), vehicle: DMSO 96 % of control

CC(C)CC(=O)Cc1ccccc1
inactive: [1] 105 % of control | [2] 105 % of control | [3] 105 % of control

CCOS(=O)O
inactive: [4] 96 % of control | [5] 96 % of control | [9] 98 % of control

O=C(N/N=C/c1ccc(Cl)cc1)Nc1ccccc1
inactive: [18] 90 % of control | [19] 96 % of control

C=C1CCC2(C(C)C)CC12 (stereo unspecified)
inactive: [10] 103 % of control | [4] 96 % of control | [11] 93 % of control | [5] 110 % of control | [12] 94 % of control | [9] 100 % of control

Cc1cc(Oc2ccc(Cl)cc2NC(=O)Nc2cccc(C(F)(F)F)c2)cc(S(=O)(=O)O)c1Cl
inactive: dose: 25.0 mg/kg/injection, schedule: Q01DX009 (ip), vehicle: saline sonified 101 % of control | dose: 50.0 mg/kg/injection, schedule: Q01DX009 (ip), vehicle: saline sonified 98 % of control | dose: 100.0 mg/kg/injection, schedule: Q01DX009 (ip), vehicle: saline sonified 90 % of control

CC(C)(C)c1ccc(OCC(=O)O)c(Cl)c1
inactive: [7] 91 % of control | [8] 101 % of control

COc1ccc(N=NN(C)C(C)=O)cc1
inactive: [16] 102 % of control | dose: 75.0 mg/kg/injection, schedule: Q01DX001 (ip), vehicle: Klucel (hydroxypropylcellulose) (HPC) 101 % of control | [18] 103 % of control | dose: 150.0 mg/kg/injection, schedule: Q01DX001 (ip), vehicle: Klucel (hydroxypropylcellulose) (HPC) 93 % of control | [19] 100 % of control | dose: 300.0 mg/kg/injection, schedule: Q01DX001 (ip), vehicle: Klucel (hydroxypropylcellulose) (HPC) 96 % of control

CCCCC(=O)OC1CC(C)CCC1C(C)C (stereo unspecified)
inactive: [18] 98 % of control | [13] 93 % of control | [19] 106 % of control | [14] 96 % of control | [17] 98 % of control | [15] 93 % of control

N#Cc1cn(-c2ccc(Cl)cc2)c2ncccc12
inactive: dose: 25.0 mg/kg/injection, schedule: Q01DX001 (ip), vehicle: saline 100 % of control | [6] 100 % of control | dose: 100.0 mg/kg/injection, schedule: Q01DX001 (ip), vehicle: saline with Tween-80 88 % of control | [1] 100 % of control | [2] 87 % of control | [3] 102 % of control

CCOC(=O)Nc1ccc(OC)cc1
inactive: [18] 96 % of control | [13] 103 % of control | [19] 98 % of control | [14] 97 % of control | [17] 93 % of control | [15] 98 % of control

Cc1ccc(NC(=O)NC2CCCCC2)cc1
inactive: [7] 94 % of control | [8] 97 % of control | dose: 400.0 mg/kg/injection, schedule: Q01DX009 (ip), vehicle: saline with Tween-80 92 % of control
